Article PMC8632988, “Inhibition of SYK and cSrc kinases can protect bone and cartilage in preclinical models of osteoarthritis and rheumatoid arthritis” (Scientific Reports, 2021)

Tests used:
Test in all cases: Kinase selectivity profile assay
Assay type in all cases: biochemical
ASK1/MAP3K5 = molecular target: T1, ASK1/MAP3K5 (Homo sapiens, UniProt Q99683); settings: 500 nM; relative to DMSO; read-out: Residual enzymatic activity
T1 construct: purchased Reaction Biology Corporation
How it was run: (§1)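 Radiometric kinase assay run by a standard protocol. Unbound phosphate was removed by washing filters in phosphoric acid, and product radioactivity gave percent remaining kinase activity versus DMSO vehicle reactions. Run in duplicate.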

AXL = molecular target: T2, AXL (Homo sapiens, UniProt P30530); settings: 500 nM; relative to DMSO; read-out: Residual enzymatic activity
T2 construct: purchased Reaction Biology Corporation
T2 sequence (P30530 26-894): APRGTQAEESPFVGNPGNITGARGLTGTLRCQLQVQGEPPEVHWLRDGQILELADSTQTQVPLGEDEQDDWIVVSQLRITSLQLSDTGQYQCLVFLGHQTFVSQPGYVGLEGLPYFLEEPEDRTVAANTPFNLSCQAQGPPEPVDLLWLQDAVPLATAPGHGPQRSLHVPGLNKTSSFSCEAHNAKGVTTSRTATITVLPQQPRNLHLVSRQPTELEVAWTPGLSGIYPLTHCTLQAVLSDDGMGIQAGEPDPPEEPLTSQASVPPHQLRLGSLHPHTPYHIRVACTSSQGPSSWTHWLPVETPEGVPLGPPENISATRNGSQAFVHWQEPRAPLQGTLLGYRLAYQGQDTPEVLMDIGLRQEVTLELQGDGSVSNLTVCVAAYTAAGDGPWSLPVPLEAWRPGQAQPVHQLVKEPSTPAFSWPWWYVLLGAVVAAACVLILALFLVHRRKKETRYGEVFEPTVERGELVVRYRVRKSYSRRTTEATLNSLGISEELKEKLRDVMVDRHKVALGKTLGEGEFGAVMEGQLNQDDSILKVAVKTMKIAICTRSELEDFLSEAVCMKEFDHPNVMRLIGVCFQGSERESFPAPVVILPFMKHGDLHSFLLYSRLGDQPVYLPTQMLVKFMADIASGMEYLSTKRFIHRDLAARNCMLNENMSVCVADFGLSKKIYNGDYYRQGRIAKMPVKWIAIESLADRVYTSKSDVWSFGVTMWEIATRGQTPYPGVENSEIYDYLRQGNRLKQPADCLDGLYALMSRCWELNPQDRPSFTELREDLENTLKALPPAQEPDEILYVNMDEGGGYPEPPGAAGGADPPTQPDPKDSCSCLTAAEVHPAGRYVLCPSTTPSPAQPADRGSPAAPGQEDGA
How it was run: as §1

BLK = molecular target: T3, BLK (Homo sapiens, UniProt P51451)
T3 construct: purchased Reaction Biology Corporation (assay service)
T3 sequence (P51451 whole entry): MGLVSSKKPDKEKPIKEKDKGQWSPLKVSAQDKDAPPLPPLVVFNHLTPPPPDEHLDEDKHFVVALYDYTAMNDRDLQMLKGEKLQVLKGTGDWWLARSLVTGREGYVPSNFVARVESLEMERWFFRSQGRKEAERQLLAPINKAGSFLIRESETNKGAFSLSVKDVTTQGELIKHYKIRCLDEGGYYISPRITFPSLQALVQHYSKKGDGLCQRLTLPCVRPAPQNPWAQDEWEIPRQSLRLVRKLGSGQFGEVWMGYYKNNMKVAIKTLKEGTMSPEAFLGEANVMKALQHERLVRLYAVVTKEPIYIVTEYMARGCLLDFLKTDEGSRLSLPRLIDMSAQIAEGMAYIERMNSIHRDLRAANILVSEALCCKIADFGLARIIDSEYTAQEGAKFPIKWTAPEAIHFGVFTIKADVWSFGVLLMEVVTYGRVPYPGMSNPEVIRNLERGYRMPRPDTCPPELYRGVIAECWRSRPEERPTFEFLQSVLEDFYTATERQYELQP
How it was run: as §1

BTK = molecular target: T4, BTK (Homo sapiens, UniProt Q06187); settings: 500 nM; relative to DMSO; read-out: Residual enzymatic activity
T4 construct: purchased Reaction Biology Corporation
How it was run: as §1

CAMK2b = molecular target: T5, CAMK2b (Homo sapiens, UniProt Q13554); settings: 500 nM; relative to DMSO; read-out: Residual enzymatic activity
T5 construct: purchased Reaction Biology Corporation
How it was run: as §1

CDK9/cyclin T1 = molecular target: T6, CDK9/cyclin T1 (Homo sapiens, UniProt P50750); settings: 500 nM; relative to DMSO; read-out: Residual enzymatic activity
T6 construct: purchased Reaction Biology Corporation
How it was run: as §1

CHK2 = molecular target: T7, CHK2 (Homo sapiens, UniProt O96017); settings: 500 nM; relative to DMSO; read-out: Residual enzymatic activity
T7 construct: purchased Reaction Biology Corporation
How it was run: as §1

CK1g1 = molecular target: T8, CK1g1 (Homo sapiens, UniProt Q9HCP0); settings: 500 nM; relative to DMSO; read-out: Residual enzymatic activity
T8 construct: purchased Reaction Biology Corporation
How it was run: as §1

CLK1 = molecular target: T9, CLK1 (Homo sapiens, UniProt P49759); settings: 500 nM; relative to DMSO; read-out: Residual enzymatic activity
T9 construct: purchased Reaction Biology Corporation
How it was run: as §1

CLK4 = molecular target: T10, CLK4 (Homo sapiens, UniProt Q9HAZ1); settings: 500 nM; relative to DMSO; read-out: Residual enzymatic activity
T10 construct: purchased Reaction Biology Corporation
How it was run: as §1

DAPK1 = molecular target: T11, DAPK1 (Homo sapiens, UniProt P53355); settings: 500 nM; relative to DMSO; read-out: Residual enzymatic activity
T11 construct: purchased Reaction Biology Corporation
How it was run: as §1

DCAMKL1 = molecular target: T12, DCAMKL1 (Homo sapiens, UniProt O15075); settings: 500 nM; relative to DMSO; read-out: Residual enzymatic activity
T12 construct: purchased Reaction Biology Corporation
How it was run: as §1

DDR1 = molecular target: T13, DDR1 (Homo sapiens, UniProt Q08345)
T13 construct: purchased Reaction Biology Corporation (assay service)
T13 sequence (Q08345 19-913): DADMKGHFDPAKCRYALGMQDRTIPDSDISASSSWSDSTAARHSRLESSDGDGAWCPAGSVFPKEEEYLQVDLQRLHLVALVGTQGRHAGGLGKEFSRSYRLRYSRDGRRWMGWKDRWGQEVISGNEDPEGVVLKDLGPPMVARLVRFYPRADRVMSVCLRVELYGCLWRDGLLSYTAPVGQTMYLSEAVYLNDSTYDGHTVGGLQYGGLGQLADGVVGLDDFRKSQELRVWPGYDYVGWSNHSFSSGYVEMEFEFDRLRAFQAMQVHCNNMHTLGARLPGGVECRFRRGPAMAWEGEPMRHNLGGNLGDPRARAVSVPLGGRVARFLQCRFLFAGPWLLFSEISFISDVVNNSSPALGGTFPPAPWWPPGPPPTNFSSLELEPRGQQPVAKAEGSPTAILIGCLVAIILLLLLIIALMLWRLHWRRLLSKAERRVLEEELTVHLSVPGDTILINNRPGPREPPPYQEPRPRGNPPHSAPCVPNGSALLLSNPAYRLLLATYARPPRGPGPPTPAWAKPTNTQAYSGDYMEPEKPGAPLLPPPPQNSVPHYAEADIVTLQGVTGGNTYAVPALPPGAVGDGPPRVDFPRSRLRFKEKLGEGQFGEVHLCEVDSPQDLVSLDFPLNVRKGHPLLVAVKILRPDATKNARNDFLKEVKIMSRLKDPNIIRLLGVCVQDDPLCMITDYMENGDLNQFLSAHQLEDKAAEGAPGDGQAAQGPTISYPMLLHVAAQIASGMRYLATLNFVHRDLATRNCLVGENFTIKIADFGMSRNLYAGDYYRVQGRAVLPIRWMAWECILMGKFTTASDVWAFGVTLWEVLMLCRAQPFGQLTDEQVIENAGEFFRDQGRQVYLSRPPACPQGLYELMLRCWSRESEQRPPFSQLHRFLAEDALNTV
How it was run: as §1

DYRK1/DYRK1A = molecular target: T14, DYRK1/DYRK1A (Homo sapiens, UniProt Q13627); settings: 500 nM; relative to DMSO; read-out: Residual enzymatic activity
T14 construct: purchased Reaction Biology Corporation
How it was run: as §1

DYRK2 = molecular target: T15, DYRK2 (Homo sapiens, UniProt Q92630); settings: 500 nM; relative to DMSO; read-out: Residual enzymatic activity
T15 construct: purchased Reaction Biology Corporation
How it was run: as §1

ERK5/MAPK7 = molecular target: T16, ERK5/MAPK7 (Homo sapiens, UniProt Q13164); settings: 500 nM; relative to DMSO; read-out: Residual enzymatic activity
T16 construct: purchased Reaction Biology Corporation
How it was run: as §1

FAK/PTK2 = molecular target: T17, FAK/PTK2 (Homo sapiens, UniProt Q05397); settings: 500 nM; relative to DMSO; read-out: Residual enzymatic activity
T17 construct: purchased Reaction Biology Corporation
How it was run: as §1

FLT1/VEGFR1 = molecular target: T18, FLT1/VEGFR1 (Homo sapiens, UniProt P17948); settings: 500 nM, relative to DMSO
T18 construct: purchased Reaction Biology Corporation
T18 sequence (P17948 27-1338): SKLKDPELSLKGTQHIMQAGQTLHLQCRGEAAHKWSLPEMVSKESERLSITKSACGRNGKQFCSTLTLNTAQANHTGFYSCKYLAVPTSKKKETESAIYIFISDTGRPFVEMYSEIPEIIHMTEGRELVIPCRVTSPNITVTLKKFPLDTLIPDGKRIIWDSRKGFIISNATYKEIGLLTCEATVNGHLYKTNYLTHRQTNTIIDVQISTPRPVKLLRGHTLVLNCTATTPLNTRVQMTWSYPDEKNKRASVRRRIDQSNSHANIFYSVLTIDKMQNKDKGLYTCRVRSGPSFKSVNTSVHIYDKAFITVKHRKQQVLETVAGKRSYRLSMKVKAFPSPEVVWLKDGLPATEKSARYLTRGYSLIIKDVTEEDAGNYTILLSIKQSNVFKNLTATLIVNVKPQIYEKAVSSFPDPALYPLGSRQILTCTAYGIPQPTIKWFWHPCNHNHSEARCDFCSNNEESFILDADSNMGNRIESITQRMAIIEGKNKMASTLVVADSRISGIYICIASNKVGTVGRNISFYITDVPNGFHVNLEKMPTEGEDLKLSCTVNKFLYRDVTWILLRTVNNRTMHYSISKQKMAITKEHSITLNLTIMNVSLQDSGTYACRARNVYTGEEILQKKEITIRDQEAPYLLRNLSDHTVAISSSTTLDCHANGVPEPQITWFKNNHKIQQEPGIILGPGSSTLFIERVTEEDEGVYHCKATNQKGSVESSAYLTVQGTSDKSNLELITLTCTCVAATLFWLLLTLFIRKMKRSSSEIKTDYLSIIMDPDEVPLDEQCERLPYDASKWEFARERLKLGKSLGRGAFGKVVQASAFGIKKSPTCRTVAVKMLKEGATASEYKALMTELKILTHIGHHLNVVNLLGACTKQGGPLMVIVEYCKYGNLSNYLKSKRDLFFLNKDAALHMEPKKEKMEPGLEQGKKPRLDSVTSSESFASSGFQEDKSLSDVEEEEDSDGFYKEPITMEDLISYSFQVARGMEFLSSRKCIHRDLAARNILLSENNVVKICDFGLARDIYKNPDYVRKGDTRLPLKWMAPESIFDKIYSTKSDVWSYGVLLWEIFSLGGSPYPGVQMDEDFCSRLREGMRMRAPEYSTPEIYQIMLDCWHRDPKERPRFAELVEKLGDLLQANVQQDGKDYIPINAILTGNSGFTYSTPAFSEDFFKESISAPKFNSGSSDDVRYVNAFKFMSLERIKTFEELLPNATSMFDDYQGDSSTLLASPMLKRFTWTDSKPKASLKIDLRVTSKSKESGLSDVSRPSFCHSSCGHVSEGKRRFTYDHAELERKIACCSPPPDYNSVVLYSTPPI
How it was run: as §1

FMS = molecular target: T19, FMS (Homo sapiens, UniProt P07333); settings: 500 nM; relative to DMSO; read-out: Residual enzymatic activity
T19 construct: purchased Reaction Biology Corporation
How it was run: as §1

GRK4 = molecular target: T20, GRK4 (Homo sapiens, UniProt P32298); settings: 500 nM; relative to DMSO; read-out: Residual enzymatic activity
T20 construct: purchased Reaction Biology Corporation
How it was run: as §1

GSK3a = molecular target: T21, GSK3a (Homo sapiens, UniProt P49840); settings: 500 nM; relative to DMSO; read-out: Residual enzymatic activity
T21 construct: purchased Reaction Biology Corporation
How it was run: as §1

IGF1R = molecular target: T22, IGF1R (Homo sapiens, UniProt P08069); settings: 500 nM; relative to DMSO; read-out: Residual enzymatic activity
T22 construct: purchased Reaction Biology Corporation
How it was run: as §1

MEK2 = molecular target: T23, MEK2 (Homo sapiens, UniProt P36507); settings: 500 nM; relative to DMSO; read-out: Residual enzymatic activity
T23 construct: purchased Reaction Biology Corporation
How it was run: as §1

MEKK3 = molecular target: T24, MEKK3 (Homo sapiens, UniProt Q99759); settings: 500 nM; relative to DMSO; read-out: Residual enzymatic activity
T24 construct: purchased Reaction Biology Corporation
How it was run: as §1

MELK = molecular target: T25, MELK (Homo sapiens, UniProt Q14680); settings: 500 nM; relative to DMSO; read-out: Residual enzymatic activity
T25 construct: purchased Reaction Biology Corporation
How it was run: as §1

MINK/MINK1 = molecular target: T26, MINK/MINK1 (Homo sapiens, UniProt Q8N4C8); settings: 500 nM; relative to DMSO; read-out: Residual enzymatic activity
T26 construct: purchased Reaction Biology Corporation
How it was run: as §1

MSSK1/STK23 = molecular target: T27, MSSK1/STK23 (Homo sapiens, UniProt Q9UPE1); settings: 500 nM; relative to DMSO; read-out: Residual enzymatic activity
T27 construct: purchased Reaction Biology Corporation
How it was run: as §1

OSR1/OXSR1 = molecular target: T28, OSR1/OXSR1 (Homo sapiens, UniProt O95747); settings: 500 nM; relative to DMSO; read-out: Residual enzymatic activity
T28 construct: purchased Reaction Biology Corporation
How it was run: as §1

PIM2 = molecular target: T29, PIM2 (Homo sapiens, UniProt Q9P1W9); settings: 500 nM; relative to DMSO; read-out: Residual enzymatic activity
T29 construct: purchased Reaction Biology Corporation
How it was run: as §1

PKCnu/PRKD3 = molecular target: T30, PKCnu/PRKD3 (Homo sapiens, UniProt O94806); settings: 500 nM; relative to DMSO; read-out: Residual enzymatic activity
T30 construct: purchased Reaction Biology Corporation
How it was run: as §1

PKN1/PRK1 = molecular target: T31, PKN1/PRK1 (Homo sapiens, UniProt Q16512); settings: 500 nM; relative to DMSO; read-out: Residual enzymatic activity
T31 construct: purchased Reaction Biology Corporation
How it was run: as §1

SGK3/SGKL = molecular target: T32, SGK3/SGKL (Homo sapiens, UniProt Q96BR1); settings: 500 nM; relative to DMSO; read-out: Residual enzymatic activity
T32 construct: purchased Reaction Biology Corporation
How it was run: as §1

STK33 = molecular target: T33, STK33 (Homo sapiens, UniProt Q9BYT3); settings: 500 nM; relative to DMSO; read-out: Residual enzymatic activity
T33 construct: purchased Reaction Biology Corporation
T33 sequence (Q9BYT3 whole entry): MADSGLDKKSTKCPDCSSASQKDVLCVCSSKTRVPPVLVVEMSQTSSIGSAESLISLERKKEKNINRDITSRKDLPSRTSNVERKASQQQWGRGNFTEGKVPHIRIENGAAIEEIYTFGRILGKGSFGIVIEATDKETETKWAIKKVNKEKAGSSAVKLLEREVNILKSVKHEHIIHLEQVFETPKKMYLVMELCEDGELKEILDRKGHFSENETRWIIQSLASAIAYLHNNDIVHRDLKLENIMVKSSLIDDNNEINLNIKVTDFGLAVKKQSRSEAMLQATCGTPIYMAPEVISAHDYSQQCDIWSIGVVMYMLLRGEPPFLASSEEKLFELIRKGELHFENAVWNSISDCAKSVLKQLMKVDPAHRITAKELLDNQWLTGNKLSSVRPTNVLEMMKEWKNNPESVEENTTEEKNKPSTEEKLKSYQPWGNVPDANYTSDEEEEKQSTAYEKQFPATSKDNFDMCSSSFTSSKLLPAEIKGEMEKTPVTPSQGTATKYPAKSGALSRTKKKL
How it was run: as §1

STK38L/NDR2 = molecular target: T34, STK38L/NDR2 (Homo sapiens, UniProt Q9Y2H1); settings: 500 nM; relative to DMSO; read-out: Residual enzymatic activity
T34 construct: purchased Reaction Biology Corporation
How it was run: as §1

TTBK1 = molecular target: T35, TTBK1 (Homo sapiens, UniProt Q5TCY1); settings: 500 nM; relative to DMSO; read-out: Residual enzymatic activity
T35 construct: purchased Reaction Biology Corporation
How it was run: as §1

TTBK2 = molecular target: T36, TTBK2 (Homo sapiens, UniProt Q6IQ55); settings: 500 nM; relative to DMSO; read-out: Residual enzymatic activity
T36 construct: purchased Reaction Biology Corporation
How it was run: as §1

TYK2 = molecular target: T37, TYK2 (Homo sapiens, UniProt P29597); settings: 500 nM; relative to DMSO; read-out: Residual enzymatic activity
T37 construct: purchased Reaction Biology Corporation
How it was run: as §1

WNK3 = molecular target: T38, WNK3 (Homo sapiens, UniProt Q9BYP7); settings: 500 nM; relative to DMSO; read-out: Residual enzymatic activity
T38 construct: purchased Reaction Biology Corporation
How it was run: as §1

ZAK/MLTK = molecular target: T39, ZAK/MLTK (Homo sapiens, UniProt Q9NYL2); settings: 500 nM; relative to DMSO; read-out: Residual enzymatic activity
T39 construct: purchased Reaction Biology Corporation
T39 sequence (Q9NYL2 whole entry): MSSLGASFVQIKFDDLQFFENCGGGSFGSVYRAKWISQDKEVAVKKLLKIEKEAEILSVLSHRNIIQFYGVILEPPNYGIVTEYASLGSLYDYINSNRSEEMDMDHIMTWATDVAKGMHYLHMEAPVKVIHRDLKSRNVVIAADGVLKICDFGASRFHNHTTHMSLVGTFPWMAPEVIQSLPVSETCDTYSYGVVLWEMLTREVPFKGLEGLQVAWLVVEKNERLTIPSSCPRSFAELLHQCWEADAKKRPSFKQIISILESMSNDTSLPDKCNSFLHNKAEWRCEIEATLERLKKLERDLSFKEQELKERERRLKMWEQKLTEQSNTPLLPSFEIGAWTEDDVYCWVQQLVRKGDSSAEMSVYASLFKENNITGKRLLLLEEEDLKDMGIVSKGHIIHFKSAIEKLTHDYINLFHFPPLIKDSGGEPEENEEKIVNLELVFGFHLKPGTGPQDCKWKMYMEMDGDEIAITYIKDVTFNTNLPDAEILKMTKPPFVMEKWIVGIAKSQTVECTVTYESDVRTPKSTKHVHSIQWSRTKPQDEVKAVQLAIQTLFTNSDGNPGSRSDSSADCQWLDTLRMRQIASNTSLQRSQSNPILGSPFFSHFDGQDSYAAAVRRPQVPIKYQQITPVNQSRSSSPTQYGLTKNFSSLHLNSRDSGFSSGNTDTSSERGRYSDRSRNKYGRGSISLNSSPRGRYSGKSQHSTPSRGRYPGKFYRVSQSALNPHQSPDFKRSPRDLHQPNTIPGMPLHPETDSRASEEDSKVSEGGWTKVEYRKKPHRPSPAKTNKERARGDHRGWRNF
How it was run: as §1

c-MET = molecular target: T40, c-MET (Homo sapiens, UniProt P08581); settings: 500 nM; relative to DMSO; read-out: Residual enzymatic activity
T40 construct: purchased Reaction Biology Corporation
How it was run: as §1

[1] = 500 nM, relative to DMSO, read-out: Residual enzymatic activity
[2] = 10-dose mode, threefold serial dilution from 10 μM

COc1cc(Nc2ncnc(Nc3cc4c(cn3)NC(=O)C(C)(C)O4)n2)cc(OC)c1OC [MT-SYK-03]
remaining activity at 0.5 µM (ASK1/MAP3K5): 102% | remaining activity at 0.5 µM (AXL): 74.3% | remaining activity at 0.5 µM (BLK; [1]): 19.8% | IC50 (BLK; [2]): 9.6 nM | inhibition at 0.5 µM (BLK; read-out: Inhibition at 500 nM): > 90% | remaining activity at 0.5 µM (BTK): 51.3% | remaining activity at 0.5 µM (CAMK2b): 97.7% | remaining activity at 0.5 µM (CDK9/cyclin T1): 118% | remaining activity at 0.5 µM (CHK2): 95% | remaining activity at 0.5 µM (CK1g1): 93.5% | remaining activity at 0.5 µM (CLK1): 90.4% | remaining activity at 0.5 µM (CLK4): 88.7% | remaining activity at 0.5 µM (DAPK1): 113% | remaining activity at 0.5 µM (DCAMKL1): 97.6% | remaining activity at 0.5 µM (DDR1; [1]): 4.7% | IC50 (DDR1; [2]): 1.8 nM | inhibition at 0.5 µM (DDR1; read-out: Inhibition at 500 nM): > 90% | remaining activity at 0.5 µM (DYRK1/DYRK1A): 90.5% | remaining activity at 0.5 µM (DYRK2): 104% | remaining activity at 0.5 µM (ERK5/MAPK7): 92.2% | remaining activity at 0.5 µM (FAK/PTK2): 87.4% | Residual enzymatic activity (FLT1/VEGFR1): did not inhibit | remaining activity at 0.5 µM (FLT1/VEGFR1; read-out: Residual enzymatic activity): 65.4% | remaining activity at 0.5 µM (FMS): 51.1% | remaining activity at 0.5 µM (GRK4): 99.7% | remaining activity at 0.5 µM (GSK3a): 74.2% | remaining activity at 0.5 µM (IGF1R): 90% | remaining activity at 0.5 µM (MEK2): 97.2% | remaining activity at 0.5 µM (MEKK3): 116% | remaining activity at 0.5 µM (MELK): 86.6% | remaining activity at 0.5 µM (MINK/MINK1): 92% | remaining activity at 0.5 µM (MSSK1/STK23): 106% | remaining activity at 0.5 µM (OSR1/OXSR1): 98.2% | remaining activity at 0.5 µM (PIM2): 97.2% | remaining activity at 0.5 µM (PKCnu/PRKD3): 99.9% | remaining activity at 0.5 µM (PKN1/PRK1): 104% | remaining activity at 0.5 µM (SGK3/SGKL): 103% | remaining activity at 0.5 µM (STK33): 70.5% | remaining activity at 0.5 µM (STK38L/NDR2): 89.6% | remaining activity at 0.5 µM (TTBK1): 108% | remaining activity at 0.5 µM (TTBK2): 109% | remaining activity at 0.5 µM (TYK2): 71.2% | remaining activity at 0.5 µM (WNK3): 82.4% | remaining activity at 0.5 µM (ZAK/MLTK): 92.9% | remaining activity at 0.5 µM (c-MET): 108%
